According to patent US7956053B2, “Inhibitors of tyrosine kinases” (Novartis AG, priority 2002, dated 2011):

Experiments:
c-Abl = target: T1, c-Abl (Homo sapiens, UniProt P00519); experiment: Test for activity against c-Abl protein tyrosine kinase (filter binding assay); format: biochemical
T1 construct: The His-tagged kinase domain of c-Abl is cloned and expressed in the baculovirus/Sf9 system; His; made in house; host or cells: baculovirus/Sf9
T1 sequence (P00519 242-493 limits assumed): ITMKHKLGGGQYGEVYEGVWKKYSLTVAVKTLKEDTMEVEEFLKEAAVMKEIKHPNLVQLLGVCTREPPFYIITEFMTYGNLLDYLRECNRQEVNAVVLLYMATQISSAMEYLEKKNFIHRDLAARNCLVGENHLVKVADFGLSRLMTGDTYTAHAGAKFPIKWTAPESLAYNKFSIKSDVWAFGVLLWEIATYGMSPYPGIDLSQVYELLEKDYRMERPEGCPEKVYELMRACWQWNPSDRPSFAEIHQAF
Method: Test for activity against c-Abl protein tyrosine kinase. The test is conducted as a filter binding assay as follows: The His-tagged kinase domain of c-Abl is cloned and expressed in the baculovirus/Sf9 system as described by Bhat et al., J Biol. Chem. 272, 16170-5 (1997). A protein of 37 kD (c-Abl kinase) is purified by a two-step procedure over a Cobalt metal chelate column followed by an anion exchange column with a yield of 1-2 mg/L of Sf9 cells. The purity of the c-Abl kinase is >90% as judged by SDS-PAGE after Coomassie blue staining. The assay contains: c-Abl kinase (50 ng), 20 mM Tris.HCl, pH 7.5, 10 mM MgCl2, 10 μM Na3VO4, 1 mM DTT and 0.06 μCi/assay [γ^33 P]-ATP (5 μM ATP) using 30 μg/mL poly-Ala,Glu,Lys,Tyr-6:2:5:1 (Poly-AEKY, Sigma P1152) in the presence of 1% DMSO, total volume of 30 μL. Reactions are terminated by adding 10 μL of 250 mM EDTA, and 30 μL of the reaction mixture is transferred onto Immobilon-PVDF membrane (Millipore, Bedford, Mass., USA) previously soaked for 5 min with methanol, rinsed with water, then soaked for 5 min with 0.5% H3PO4 and mounted on vacuum manifold with disconnected vacuum source. After spotting all samples, vacuum is connected and each well rinsed with 200 μL 0.5% H3PO4. Membranes are removed and washed on a shaker with 0.5% H3PO4 (4 times) and once with ethanol. Membranes are counted after drying at ambient temperature, mounting in Packard TopCount 96-well frame, and addition of 10 μL/well of Microscint™ (Packard).
(§1) Enzymatic (c-Abl, KDR, Flt3) in vitro inhibition data are presented as % inhibition at 10 μM. The measurements are made as described above in the general description.

KDR = KDR (Homo sapiens, UniProt P35968); experiment: Enzymatic KDR in vitro inhibition; format: biochemical
KDR, sequence (P35968 20-1356): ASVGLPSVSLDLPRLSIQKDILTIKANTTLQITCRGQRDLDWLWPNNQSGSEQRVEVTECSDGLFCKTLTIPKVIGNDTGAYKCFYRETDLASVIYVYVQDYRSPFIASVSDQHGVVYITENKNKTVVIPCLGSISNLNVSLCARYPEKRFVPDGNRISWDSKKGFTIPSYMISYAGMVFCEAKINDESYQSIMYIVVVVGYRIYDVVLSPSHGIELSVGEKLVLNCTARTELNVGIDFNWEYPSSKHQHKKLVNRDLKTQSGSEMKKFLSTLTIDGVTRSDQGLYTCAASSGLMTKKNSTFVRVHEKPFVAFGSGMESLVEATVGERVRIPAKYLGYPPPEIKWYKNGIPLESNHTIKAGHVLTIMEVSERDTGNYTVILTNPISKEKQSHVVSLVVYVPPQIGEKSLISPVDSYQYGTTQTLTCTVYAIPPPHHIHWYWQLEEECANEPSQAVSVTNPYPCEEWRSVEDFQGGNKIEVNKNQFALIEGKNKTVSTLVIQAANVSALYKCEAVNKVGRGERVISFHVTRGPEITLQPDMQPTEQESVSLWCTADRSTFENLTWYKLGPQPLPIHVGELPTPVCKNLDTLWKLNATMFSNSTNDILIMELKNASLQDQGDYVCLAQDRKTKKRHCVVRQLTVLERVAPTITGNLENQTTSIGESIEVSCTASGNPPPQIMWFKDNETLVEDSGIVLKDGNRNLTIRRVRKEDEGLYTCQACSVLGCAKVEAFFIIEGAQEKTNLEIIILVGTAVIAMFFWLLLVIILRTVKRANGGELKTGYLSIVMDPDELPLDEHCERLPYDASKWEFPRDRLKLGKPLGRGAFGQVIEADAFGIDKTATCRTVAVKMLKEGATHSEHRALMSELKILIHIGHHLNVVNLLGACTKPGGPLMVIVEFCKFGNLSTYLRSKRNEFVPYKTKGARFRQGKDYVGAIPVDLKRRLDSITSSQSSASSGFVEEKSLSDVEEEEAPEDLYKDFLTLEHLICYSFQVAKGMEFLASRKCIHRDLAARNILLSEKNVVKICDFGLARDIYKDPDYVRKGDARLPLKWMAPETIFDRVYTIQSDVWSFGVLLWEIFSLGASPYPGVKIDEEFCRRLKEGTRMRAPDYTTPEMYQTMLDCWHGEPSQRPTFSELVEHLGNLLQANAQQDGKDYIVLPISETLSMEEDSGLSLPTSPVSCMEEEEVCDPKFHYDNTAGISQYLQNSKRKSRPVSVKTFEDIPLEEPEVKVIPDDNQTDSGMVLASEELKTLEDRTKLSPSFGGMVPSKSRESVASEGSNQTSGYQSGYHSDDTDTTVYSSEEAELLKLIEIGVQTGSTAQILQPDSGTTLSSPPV
Method: Test for activity against VEGF-receptor tyrosine kinase. The test is conducted using Flt-1 VEGF-receptor tyrosine kinase. The detailed procedure is as follows: 30 μL kinase solution (10 ng of the kinase domain of Flt-1, Shibuya et al., Oncogene 5, 519-24 [1990]) in 20 mM Tris.HCl pH 7.5, 3 mM manganese dichloride (MnCl2), 3 mM magnesium chloride (MgCl2), 10 μM sodium vanadate, 0.25 mg/mL polyethylenglycol (PEG) 20000, 1 mM dithiothreitol and 3 μg/μL poly(Glu,Tyr) 4:1 (Sigma, Buchs, Switzerland), 8 μM [^33P]-ATP (0.2 μCi), 1% DMSO, and 0 to 100 μM of the compound to be tested are incubated together for 10 minutes at room temperature. The reaction is then terminated by the addition of 10 μL 0.25 M ethylenediaminetetraacetate (EDTA) pH 7. Using a multichannel dispenser (LAB SYSTEMS, USA), an aliquot of 20 μL is applied to a PVDF (=polyvinyl difluoride) Immobilon P membrane (Millipore, Bedford, USA), through a Gibco-BRL microtiter filter manifold and connected to a vacuum. Following complete elimination of the liquid, the membrane is washed 4 times successively in a bath containing 0.5% phosphoric acid (H3PO4) and once with ethanol, incubated for 10 minutes each time while shaking, then mounted in a Hewlett Packard TopCount Manifold and the radioactivity measured after the addition of 10 μL Microscint® (β-scintillation counter liquid). IC50-values are determined by linear regression analysis of the percentages for the inhibition of each compound in at least four concentrations (as a rule 0.01, 0.1, 1.0 and 10 μmol).
as §1

SMILES | inhibition at 10 µM (c-Abl) [%] | inhibition at 10 µM (KDR) [%]
Cc1ccc(C(=O)NCCc2cccn2C)cc1Nc1nccc(-c2cccnc2)n1 [Example 7, 4-Methyl-N-[2-(1-methyl-1H-pyrrol-2-yl)ethyl]-3-[[4-(3-pyridinyl)-2-pyrimidinyl]amino]benzamide] | 72 | 45
COc1ccc(CNC(=O)c2ccc(C)c(Nc3nccc(-c4cccnc4)n3)c2)cc1 [Example 8, N-[(4-Methoxyphenyl)methyl]-4-methyl-3-[[4-(3-pyridinyl)-2-pyrimidinyl]amino]benzamide] | 70 | 81
Cc1ccc(C(=O)Nc2ccc(CN3CCN(C)CC3)cc2)cc1Nc1nccc(-c2cccnc2)n1 [Example 2, N-[4-Methyl-3-[[4-(3-pyridinyl)-2-pyrimidinyl]amino]benzoyl]-4-[(4-methyl-1-piperazinyl)methyl]benzeneamine] | 97 | 73
Cc1ccc(C(=O)NC2CCCCC2)cc1Nc1nccc(-c2cccnc2)n1 [Example 13, N-Cyclohexyl-4-methyl-3-[[4-(3-pyridinyl)-2-pyrimidinyl]amino]benzamide] | 78 | 48
COc1ccc(NC(=O)c2ccc(C)c(Nc3nccc(-c4cccnc4)n3)c2)c(C)c1 [Example 23, N-(4-Methoxy-2-methylphenyl)-4-methyl-3-[[4-(3-pyridinyl)-2-pyrimidinyl]amino]benzamide] | 90 | 67
Cc1ccc(C(=O)NCc2ccc(S(C)(=O)=O)cc2)cc1Nc1nccc(-c2cccnc2)n1 [Example 24, 4-Methyl-N-[4-(methylsulfonyl)benzyl]-3-[[4-(3-pyridinyl)-2-pyrimidinyl]amino]benzamide] | 80 | 70
COc1ccc(CCNC(=O)c2ccc(C)c(Nc3nccc(-c4cccnc4)n3)c2)cc1OC [Example 15, N-[2-(3,4-Dimethoxyphenyl)ethyl]-4-methyl-3-[[4-(3-pyridinyl)-2-pyrimidinyl]amino]benzamide] | 60 | 23
CC(=O)Nc1ccc(NC(=O)c2ccc(C)c(Nc3nccc(-c4cccnc4)n3)c2)cc1 [Example 22, N-[4-(Acetylamino)phenyl]-4-methyl-3-[[4-(3-pyridinyl)-2-pyrimidinyl]amino]benzamide] | 59 | 7
COC(=O)CCNC(=O)c1ccc(C)c(Nc2nccc(-c3cccnc3)n2)c1 [Example 28, N-[4-Methyl-3-[[4-(3-pyridinyl)-2-pyrimidinyl]amino]benzoyl]beta-alanine methyl ester] | 73 | 61
Cc1ccc(C(=O)NCC(C)C)cc1Nc1nccc(-c2cccnc2)n1 [Example 9, 4-Methyl-N-(2-methylpropyl)-3-[[4-(3-pyridinyl)-2-pyrimidinyl]amino]benzamide] | 44 | 39
Cc1ccc(C(=O)NCCCn2ccnc2)cc1Nc1nccc(-c2cccnc2)n1 [Example 17, N-[3-(1H-Imidazol-1-yl)propyl]-4-methyl-3-[[4-(3-pyridinyl)-2pyrimidinyl]amino]benzamide] | 54 | 62
Cc1ccc(C(=O)NCC2CC2)cc1Nc1nccc(-c2cccnc2)n1 [Example 18, N-(Cyclopropylmethyl)-4-methyl-3-[[4-(3-pyridinyl)-2-pyrimidinyl]amino]-benzamide] | 56 | 62
Cc1ccc(C(=O)NCc2ccc(S(N)(=O)=O)cc2)cc1Nc1nccc(-c2cccnc2)n1 [Example 29, N-[[4-(Aminosulfonyl)phenyl]methyl]-4-methyl-3-[[4-(3-pyridinyl)-2-pyrimidinyl]amino]benzamide] | 78 | 

Next, values leading:

inhibition at 10 µM (c-Abl) [%] | inhibition at 10 µM (KDR) [%] | SMILES
75 | 83 | Cc1ccc(C(=O)N2CCC(O)(c3ccccc3)CC2)cc1Nc1nccc(-c2cccnc2)n1 [Example 59, 1-[4-Methyl-3-[[4-(3-pyridinyl)-2-pyrimidinyl]amino]benzoyl]-4-phenyl-4-piperidinol]
75 | 97 | Cc1ccc(C(=O)N2CCc3ccccc3C2)cc1Nc1nccc(-c2cccnc2)n1 [Example 44, 2-[4-Methyl-3-[[4-(3-pyridinyl)-2-pyrimidinyl]amino]benzoyl]-1,2,3,4-tetrahydro-isoquinoline]
57 | 77 | COc1ccc(N2CCN(C(=O)c3ccc(C)c(Nc4nccc(-c5cccnc5)n4)c3)CC2)cc1 [Example 36, 1-(4-Methoxyphenyl)-4-[4-methyl-3-[[4-(3-pyridinyl)-2-pyrimidinyl]amino]-benzoyl]piperazine]
27 | 47 | Cc1ccc(C(=O)N2CCOCC2)cc1Nc1nccc(-c2cccnc2)n1 [Example 35, 4-[4-Methyl-3-[[4-(3-pyridinyl)-2-pyrimidinyl]amino]benzoyl]-morpholine]
56 | 59 | CCOC(=O)C1CCN(Cc2cccc(NC(=O)c3ccc(C)c(Nc4nccc(-c5cccnc5)n4)c3)c2)CC1 [Example 64, 1-[[3-[[4-Methyl-3-[[4-(3-pyridinyl)-2-pyrimidinyl]amino]benzoyl]amino]phenyl]-methyl]-4-piperidinecarboxylic acid ethyl ester]
73 | 89 | Cc1ccc(C(=O)N2CCC(NC(=O)c3ccccc3)CC2)cc1Nc1nccc(-c2cccnc2)n1 [Example 34, N-[1-[4-Methyl-3-[[4-(3-pyridinyl)-2-pyrimidinyl]amino]benzoyl]-4-piperidinyl]benzamide]
64 | 74 | Cc1ccc(C(=O)N2CCN(Cc3ccccc3)CC2)cc1Nc1nccc(-c2cccnc2)n1 [Example 39, 1-[4-Methyl-3-[[4-(3-pyridinyl)-2-pyrimidinyl]amino]benzoyl]-4-(phenylmethyl)-piperazine]
37 | 63 | CCOC(=O)N1CCN(C(=O)c2ccc(C)c(Nc3nccc(-c4cccnc4)n3)c2)CC1 [Example 43, 4-[4-Methyl-3-[[4-(3-pyridinyl)-2-pyrimidinyl]amino]benzoyl]-1-piperazinecarboxylic acid ethyl ester]
67 | 23 | Cc1ccc(C(=O)NCCN(C(C)C)C(C)C)cc1Nc1nccc(-c2cccnc2)n1 [Example 66, N-[2-[bis(1-Methylethyl)amino]ethyl]-4-methyl-3-[[4-(3-pyridinyl)-2-pyrimidinyl]-amino]benzamide]
40 | 44 | CCOCCNC(=O)c1ccc(C)c(Nc2nccc(-c3cccnc3)n2)c1 [Example 56, N-(2-Ethoxyethyl)-4-methyl-3-[[4-(3-pyridinyl)-2-pyrimidinyl]amino]benzamide]
57 | 37 | Cc1ccc(C(=O)NCCCO)cc1Nc1nccc(-c2cccnc2)n1 [Example 30, N-(3-Hydroxypropyl)-4-methyl-3-[[4-(3-pyridinyl)-2-pyrimidinyl]amino]benzamide]
